The values that follow come from the NIST ThermoML archive (doi:10.1016/j.fluid.2014.03.008).

The conditions of data set [1]: Liquid; for mass density: 101.33 kPa, Vibrating tube method; for Normal boiling temperature: Ebulliometric method (Recirculating still).
Data set [2] is described as follows: refractive index (Na D-line) (dimensionless). Conditions: 101.33 kPa, Liquid, Standard Abbe refractometry.

Numbers after ± are expanded uncertainties.

As for `CC(=O)c1ccccc1` [acetophenone], in data set [1] (293.15 K), the mass density is given as 1027.9 ± 0.9 kg/m3. Further, the Normal boiling temperature in data set [1] is 202.0 ± 0.2 °C. Further, in data set [2] (293.15 K), the refractive index is 1.5361 ± 0.012.

For `CCCC(=O)O` [butanoic acid], the mass density in data set [1] (298.15 K) is 952.6 ± 0.24 kg/m3. In data set [1], the Normal boiling temperature turned out to be 163.7 ± 0.2 °C. Moreover, the refractive index in data set [2] (293.15 K) turned out to be 1.3982 ± 0.012.

As for `CCOC(=O)CC(=O)OCC` [diethyl 1,3-propanedioate], the mass density in data set [1] (293.15 K) came to 1055.25 ± 0.95 kg/m3. Besides, in data set [1], the Normal boiling temperature was determined as 199.90 ± 0.2 °C. Besides, in data set [2] (293.15 K), the refractive index is listed as 1.4135 ± 0.012.

Consider `CCCC(=O)OCC` [ethyl butanoate], for which, in data set [1] (298.15 K), the mass density was found to be 873.25 ± 0.7 kg/m3. Moreover, the Normal boiling temperature in data set [1] was 121.40 ± 0.2 °C. Also, in data set [2] (298.15 K), the refractive index was 1.3891 ± 0.012.

Turning to `CCCCC(=O)OCC` [ethyl pentanoate], the mass density in data set [1] (293.15 K) is 877.15 ± 0.24 kg/m3. Further, the Normal boiling temperature in data set [1] was 146.2 ± 0.2 °C. Also, in data set [2] (293.15 K), the refractive index worked out at 1.4125 ± 0.012.

As for `CCCCCCCCO` [octan-1-ol], the mass density in data set [1] (298.15 K) was found to be 825.95 ± 0.24 kg/m3. Further, the Normal boiling temperature in data set [1] came out at 195.1 ± 0.2 °C. Also, the refractive index in data set [2] (293.15 K) worked out at 1.428 ± 0.012.

On to `O` [water], for which the mass density in data set [1] (293.15 K) was found to be 999.7 ± 0.08 kg/m3. For the same molecule, the Normal boiling temperature in data set [1] came to 100.10 ± 0.2 °C. Also, the refractive index in data set [2] (293.15 K) came to 1.3325 ± 0.012.
